Test results from publication PMC9775191, “A Subset Screen of the Compounds Australia Scaffold Library Identifies 7-Acylaminodibenzoxazepinones as Potent and Selective Hits for Anti-Giardia Drug Discovery” (Biomedicines, 2022).

Each compound was assayed on G. duodenalis BRIS/91/HEPU/1279 (assay: Primary Giardia screen at 10 µM (live-cell imaging, automated counting)). Settings: Giardia duodenalis, 24 h, first singlicate assay, read-out: % Inhibition n=1 24h.
Assay type: cell-based, Giardia duodenalis
In short: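 Percent growth versus 0.2% DMSO vehicle, background-corrected with media-only wells, is reported at 24 and 48 h from automated live-cell counts. Testing used 10 μM final in a 3% O2 atmosphere, with plate quality checked by Z' factor.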
In the case of `Cc1ccc(NC(=O)c2cc3c(Cl)ccc4c3n2CCO4)cc1` [SN00788144, Cc1ccc(cc1)NC(=O)c1cc2c(Cl)ccc3OCCn1c23], the inhibition at 10 µM is reported as 41%.
`CCc1nnc2c3ccccc3nc(N3CCN(c4cccc(Cl)c4)CC3)n12` [SN00788523, CCc1nnc2n1c(nc1ccccc21)N1CCN(CC1)c1cccc(Cl)c1] was tested, and the inhibition at 10 µM was 38.2%.
`COc1cc(NS(=O)(=O)c2ccc(C)cc2)cc2sc(NC(=O)c3ccccc3)nc12` [SN00790147, COc1cc(cc2sc(NC(=O)c3ccccc3)nc12)NS(=O)(=O)c1ccc(C)cc1] was tested, and the inhibition at 10 µM was 34.5%.

Same assay, conditions: Giardia duodenalis, 24 h, re-assessment, read-out: % Inhibition n=2 24h
With `Cc1ccc(NC(=O)c2cc3c(Cl)ccc4c3n2CCO4)cc1` [SN00788144, Cc1ccc(cc1)NC(=O)c1cc2c(Cl)ccc3OCCn1c23] the inhibition at 10 µM was 20.1%.
For `CCc1nnc2c3ccccc3nc(N3CCN(c4cccc(Cl)c4)CC3)n12` [SN00788523, CCc1nnc2n1c(nc1ccccc21)N1CCN(CC1)c1cccc(Cl)c1], the inhibition at 10 µM was 28.9%.
`COc1cc(NS(=O)(=O)c2ccc(C)cc2)cc2sc(NC(=O)c3ccccc3)nc12` [SN00790147, COc1cc(cc2sc(NC(=O)c3ccccc3)nc12)NS(=O)(=O)c1ccc(C)cc1] was tested, and the inhibition at 10 µM was 12.8%.

Same assay, conditions: Giardia duodenalis, 24 h, read-out: Average % Inhibition 24h
`Cc1ccc(NC(=O)c2cc3c(Cl)ccc4c3n2CCO4)cc1` [SN00788144, Cc1ccc(cc1)NC(=O)c1cc2c(Cl)ccc3OCCn1c23] was tested, and the inhibition at 10 µM was 30.5%.
`CCc1nnc2c3ccccc3nc(N3CCN(c4cccc(Cl)c4)CC3)n12` [SN00788523, CCc1nnc2n1c(nc1ccccc21)N1CCN(CC1)c1cccc(Cl)c1] was tested, and the inhibition at 10 µM was 33.6%.
`COc1cc(NS(=O)(=O)c2ccc(C)cc2)cc2sc(NC(=O)c3ccccc3)nc12` [SN00790147, COc1cc(cc2sc(NC(=O)c3ccccc3)nc12)NS(=O)(=O)c1ccc(C)cc1] was tested, and the inhibition at 10 µM was 23.6%.

Same assay, conditions: Giardia duodenalis, 48 h, first singlicate assay, read-out: % Inhibition n=1 48h
`Cc1ccc(NC(=O)c2cc3c(Cl)ccc4c3n2CCO4)cc1` [SN00788144, Cc1ccc(cc1)NC(=O)c1cc2c(Cl)ccc3OCCn1c23] was tested, and the inhibition at 10 µM was 65.8%.
For `CCc1nnc2c3ccccc3nc(N3CCN(c4cccc(Cl)c4)CC3)n12` [SN00788523, CCc1nnc2n1c(nc1ccccc21)N1CCN(CC1)c1cccc(Cl)c1], the inhibition at 10 µM was 65.8%.
`COc1cc(NS(=O)(=O)c2ccc(C)cc2)cc2sc(NC(=O)c3ccccc3)nc12` [SN00790147, COc1cc(cc2sc(NC(=O)c3ccccc3)nc12)NS(=O)(=O)c1ccc(C)cc1] showed an inhibition at 10 µM of 56.9%.

Same assay, conditions: Giardia duodenalis, 48 h, re-assessment, read-out: % Inhibition n=2 48h
Compound `Cc1ccc(NC(=O)c2cc3c(Cl)ccc4c3n2CCO4)cc1` [SN00788144, Cc1ccc(cc1)NC(=O)c1cc2c(Cl)ccc3OCCn1c23] has an inhibition at 10 µM of 32.9%.
`CCc1nnc2c3ccccc3nc(N3CCN(c4cccc(Cl)c4)CC3)n12` [SN00788523, CCc1nnc2n1c(nc1ccccc21)N1CCN(CC1)c1cccc(Cl)c1] showed an inhibition at 10 µM of 80.4%.
Work on `COc1cc(NS(=O)(=O)c2ccc(C)cc2)cc2sc(NC(=O)c3ccccc3)nc12` [SN00790147, COc1cc(cc2sc(NC(=O)c3ccccc3)nc12)NS(=O)(=O)c1ccc(C)cc1] yielded an inhibition at 10 µM of 43.2%.

Same assay, conditions: Giardia duodenalis, 48 h, read-out: Average % Inhibition 48h
With `Cc1ccc(NC(=O)c2cc3c(Cl)ccc4c3n2CCO4)cc1` [SN00788144, Cc1ccc(cc1)NC(=O)c1cc2c(Cl)ccc3OCCn1c23] the inhibition at 10 µM was 49.3%.
Compound `CCc1nnc2c3ccccc3nc(N3CCN(c4cccc(Cl)c4)CC3)n12` [SN00788523, CCc1nnc2n1c(nc1ccccc21)N1CCN(CC1)c1cccc(Cl)c1] has an inhibition at 10 µM of 73.1%.
`COc1cc(NS(=O)(=O)c2ccc(C)cc2)cc2sc(NC(=O)c3ccccc3)nc12` [SN00790147, COc1cc(cc2sc(NC(=O)c3ccccc3)nc12)NS(=O)(=O)c1ccc(C)cc1] was tested, and the inhibition at 10 µM was 50.1%.

Each compound was assayed on G. duodenalis BRIS/91/HEPU/1279 (assay: Giardia dose response assay, assemblage B). Settings: Giardia duodenalis, 24 h, read-out: G. duodenalis IC50 24h, Table S2; 24 h; ±SD; max 10 µM.
Assay type: cell-based, Giardia duodenalis
Method: In these assays, compounds were serially diluted (8–12-point doubling dilutions in technical duplicate) in DMSO control media, with all test wells inoculated with parasites (1.5 × 10^4 parasites for BRIS/91/HEPU/1279 and BRIS/91/HEPU/1279m1, or 3 × 10^3 parasites for BRIS/87/HEPU/713). […] All plates were sealed in culture chambers and gassed with 3% O2, 5% CO2 in N2 and incubated at 37 °C for 48 h, with parasites imaged and enumerated at 24 and 48 h. Growth inhibition was calculated as a percentage relative to vehicle controls minus any background as described above and IC50 values were determined using log-linear interpolation as previously described. […] Statistical comparison of IC50 values when required were performed using Student’s t-test.
With `Cc1ccc(NC(=O)c2cc3c(Cl)ccc4c3n2CCO4)cc1` [SN00788144, Cc1ccc(cc1)NC(=O)c1cc2c(Cl)ccc3OCCn1c23] the IC50 was > 10 µM.
In the case of `CCc1nnc2c3ccccc3nc(N3CCN(c4cccc(Cl)c4)CC3)n12` [SN00788523, CCc1nnc2n1c(nc1ccccc21)N1CCN(CC1)c1cccc(Cl)c1], the IC50 is reported as > 10 µM.
With `COc1cc(NS(=O)(=O)c2ccc(C)cc2)cc2sc(NC(=O)c3ccccc3)nc12` [SN00790147, COc1cc(cc2sc(NC(=O)c3ccccc3)nc12)NS(=O)(=O)c1ccc(C)cc1] the IC50 was > 10 µM.

Same assay, conditions: Giardia duodenalis, 48 h, Table S2; 48 h; ±SD; max 10 µM; read-out: G. duodenalis IC50 48h
`Cc1ccc(NC(=O)c2cc3c(Cl)ccc4c3n2CCO4)cc1` [SN00788144, Cc1ccc(cc1)NC(=O)c1cc2c(Cl)ccc3OCCn1c23] was tested, and the IC50 was > 10 µM.
For `CCc1nnc2c3ccccc3nc(N3CCN(c4cccc(Cl)c4)CC3)n12` [SN00788523, CCc1nnc2n1c(nc1ccccc21)N1CCN(CC1)c1cccc(Cl)c1], the IC50 was 6.91 µM.
In the case of `COc1cc(NS(=O)(=O)c2ccc(C)cc2)cc2sc(NC(=O)c3ccccc3)nc12` [SN00790147, COc1cc(cc2sc(NC(=O)c3ccccc3)nc12)NS(=O)(=O)c1ccc(C)cc1], the IC50 is reported as > 10 µM.

Same assay, conditions: Giardia duodenalis, read-out: % inhibition @ 10µM 48h (comment); Table S2 comment; 10 µM; 48 h
Compound `CCc1nnc2c3ccccc3nc(N3CCN(c4cccc(Cl)c4)CC3)n12` [SN00788523, CCc1nnc2n1c(nc1ccccc21)N1CCN(CC1)c1cccc(Cl)c1] has an inhibition at 10 µM of 44%.

What follows are compounds tested on Neonatal foreskin fibroblast (NFF) cells (assay: Mammalian cell cytotoxicity assay (sulforhodamine B)). Settings: Homo sapiens, NFF; 20 µM; ±SD.
Assay type: cell-based, human
Method: The selectivity of compounds of interest was assessed against NFF cells. Assays were performed using sulforhodamine B and included media only, negative (no compound, no DMSO), and vehicle (DMSO) controls as previously described. A chloroquine control plate was included in each assay. […] Repurchased SN00797640 was tested in dose–response from 100 µM against NFF. Selectivity indices (SI) were calculated by dividing mammalian cell IC50 values by G. duodenalis BRIS/91/HEPU/1279 IC50 values.
`Cc1ccc(NC(=O)c2cc3c(Cl)ccc4c3n2CCO4)cc1` [SN00788144, Cc1ccc(cc1)NC(=O)c1cc2c(Cl)ccc3OCCn1c23] gave an inhibition at 20 µM of 31.4 ± 11.3%.
Compound `CCc1nnc2c3ccccc3nc(N3CCN(c4cccc(Cl)c4)CC3)n12` [SN00788523, CCc1nnc2n1c(nc1ccccc21)N1CCN(CC1)c1cccc(Cl)c1] has an inhibition at 20 µM of -0.2 ± 22.2%.
`COc1cc(NS(=O)(=O)c2ccc(C)cc2)cc2sc(NC(=O)c3ccccc3)nc12` [SN00790147, COc1cc(cc2sc(NC(=O)c3ccccc3)nc12)NS(=O)(=O)c1ccc(C)cc1] was tested, and the inhibition at 20 µM was 53.3 ± 7.1%.

Same assay, conditions: Table S2; NFF vs 48 h Giardia IC50
For `CCc1nnc2c3ccccc3nc(N3CCN(c4cccc(Cl)c4)CC3)n12` [SN00788523, CCc1nnc2n1c(nc1ccccc21)N1CCN(CC1)c1cccc(Cl)c1], the “SI (48h Gd)” value was > 2.

Each compound was assayed on Acinetobacter baumannii (ATCC 19606) (assay: Anti-bacterial activity assay). Settings: ATCC19606, 50 µM.
Assay type: cell-based
Method: (§1) The activity of compounds against methicillin resistant Staphylococcus aureus (ATCC 43300), Escherichia coli (ATCC 25922), Acinetobacter baumannii (ATCC 19606) and Klebsiella pneumoniae (ATCC 700603) was assessed at 50 µM in duplicate as previously described. In brief, mid-log phase bacteria cultures were added to 384-well microtiter plate wells containing compound to final cell density of 5 × 10^5 CFU/mL in 50 µL. Plates were then covered and incubated at 37 °C for 18 h without shaking. Inhibition of bacterial growth was determined by measuring absorbance at 600 nm (Tecan M1000 Pro monochromator plate reader) and calculating percentage growth inhibition relative to the negative media and bacteria without inhibitors. Vancomycin hydrochloride (Sigma-Aldrich an affiliate of Merck KGaA, Darmstadt, Germany, #861987) and colistin sulfate (Sigma-Aldrich an affiliate of Merck KGaA, Darmstadt, Germany, C4461) were on each plate as positive controls for Gram-positive (S. aureus) and Gram-negative (E. coli, A. baumannii and K. pneumoniae) bacteria, respectively.
`Cc1ccc(NC(=O)c2cc3c(Cl)ccc4c3n2CCO4)cc1` [SN00788144, Cc1ccc(cc1)NC(=O)c1cc2c(Cl)ccc3OCCn1c23] was tested, and the inhibition at 50 µM was 20.8%.
With `CCc1nnc2c3ccccc3nc(N3CCN(c4cccc(Cl)c4)CC3)n12` [SN00788523, CCc1nnc2n1c(nc1ccccc21)N1CCN(CC1)c1cccc(Cl)c1] the inhibition at 50 µM was 1.85%.
`COc1cc(NS(=O)(=O)c2ccc(C)cc2)cc2sc(NC(=O)c3ccccc3)nc12` [SN00790147, COc1cc(cc2sc(NC(=O)c3ccccc3)nc12)NS(=O)(=O)c1ccc(C)cc1] was tested, and the inhibition at 50 µM was 3.03%.

Each compound was assayed on Klebsiella pneumoniae (ATCC 700603) (assay: Anti-bacterial activity assay). Settings: ATCC700603, 50 µM, read-out: Bacterial Inhibition K. pneumoniae.
Assay type: cell-based
Method: as §1
`Cc1ccc(NC(=O)c2cc3c(Cl)ccc4c3n2CCO4)cc1` [SN00788144, Cc1ccc(cc1)NC(=O)c1cc2c(Cl)ccc3OCCn1c23] showed an inhibition at 50 µM of 13.5%.
`CCc1nnc2c3ccccc3nc(N3CCN(c4cccc(Cl)c4)CC3)n12` [SN00788523, CCc1nnc2n1c(nc1ccccc21)N1CCN(CC1)c1cccc(Cl)c1] gave an inhibition at 50 µM of 22.1%.
Compound `COc1cc(NS(=O)(=O)c2ccc(C)cc2)cc2sc(NC(=O)c3ccccc3)nc12` [SN00790147, COc1cc(cc2sc(NC(=O)c3ccccc3)nc12)NS(=O)(=O)c1ccc(C)cc1] has an inhibition at 50 µM of 6.94%.

These compounds were tested on Escherichia coli (ATCC 25922) (assay: Anti-bacterial activity assay). Settings: Escherichia coli, ATCC25922, 50 µM; read-out: Bacterial Inhibition E. coli.
Assay type: cell-based
Method: as §1
Compound `Cc1ccc(NC(=O)c2cc3c(Cl)ccc4c3n2CCO4)cc1` [SN00788144, Cc1ccc(cc1)NC(=O)c1cc2c(Cl)ccc3OCCn1c23] has an inhibition at 50 µM of 2.85%.
`CCc1nnc2c3ccccc3nc(N3CCN(c4cccc(Cl)c4)CC3)n12` [SN00788523, CCc1nnc2n1c(nc1ccccc21)N1CCN(CC1)c1cccc(Cl)c1] gave an inhibition at 50 µM of 2.37%.
Work on `COc1cc(NS(=O)(=O)c2ccc(C)cc2)cc2sc(NC(=O)c3ccccc3)nc12` [SN00790147, COc1cc(cc2sc(NC(=O)c3ccccc3)nc12)NS(=O)(=O)c1ccc(C)cc1] yielded an inhibition at 50 µM of -1.53%.

These compounds were tested on methicillin resistant Staphylococcus aureus (ATCC 43300) (assay: Anti-bacterial activity assay). Settings: Staphylococcus aureus, ATCC43300, 50 µM; read-out: Bacterial Inhibition S. aureus.
Assay type: cell-based
Method: as §1
`Cc1ccc(NC(=O)c2cc3c(Cl)ccc4c3n2CCO4)cc1` [SN00788144, Cc1ccc(cc1)NC(=O)c1cc2c(Cl)ccc3OCCn1c23] was tested, and the inhibition at 50 µM was -2.91%.
`CCc1nnc2c3ccccc3nc(N3CCN(c4cccc(Cl)c4)CC3)n12` [SN00788523, CCc1nnc2n1c(nc1ccccc21)N1CCN(CC1)c1cccc(Cl)c1] was tested, and the inhibition at 50 µM was 1.08%.
`COc1cc(NS(=O)(=O)c2ccc(C)cc2)cc2sc(NC(=O)c3ccccc3)nc12` [SN00790147, COc1cc(cc2sc(NC(=O)c3ccccc3)nc12)NS(=O)(=O)c1ccc(C)cc1] showed an inhibition at 50 µM of 11.9%.
